Residues, ends and D or L forms follow the SMILES beside them.
Columns and labels:
lymphocytes [1] = assay: mixed lymphocyte test, [3H]TdR incorporation; format: cell-based, mouse; conditions: 1 μM 11R-VEET
Procedure: Spleen cells were retrieved from a 6 to 8 week old C3H/HeN mouse and a 6 to 8 week old BALB/c mouse H-2d (available from Shimizu Laboratory Supplies Co., Ltd.). The BALB/c spleen cells were treated with mitomycin C (available from Kyowa Hakko Kogyo Co., Ltd.) and used as stimulating cells.
Subsequently, 5×10^5 of mixed cells obtained by mixing the above stimulating cells and the spleen cells derived from a C3H/HeN mouse in a ratio of 1:5 were added in each well and cultured for 90 hours in a carbon dioxide culture device set to 37° C. and carbon dioxide concentration of 5%. As control, the mixed cells were added to wells containing only a medium and cultured in the same manner.
Then, ^3H-methyl-thymidine (hereinafter referred to as [^3H]TdR, available from Amersham Pharmacia Biotech K.K.) of 0.5 μCi/well was added and culture was conducted for 6 hours. Thereafter, the cells were placed on filter paper having a diameter of 1 cm and the radioactivity of [^3H]TdR incorporated into the cells was measured by a beta counter (made by Beckman Coulter K.K.).

βTC6 cells [2] = assay: proliferation of βTC6 cells, [3H]TdR incorporation; format: cell-based; conditions: 11R-VEET 10, 100, 1000 or 10000 nM
Procedure: The medium was replaced with a fresh medium containing […] every 24 hours. Subsequently, [^3H]TdR of 1 μCi/well was added and culture was conducted for 8 more hours. For control, βTC6 cells were cultured in the same manner except that a medium without […] was used. Thereafter, the cells were placed on filter paper having a diameter of 1 cm and the radioactivity of [^3H]TdR incorporated into the cells was measured by a beta counter.

transplanted beta cells = assay: beta cell transplant in diabetic model mouse, survival of transplant by Kaplan-Meier; format: in vivo; conditions: 10 mg/kg intraperitoneally once a day after transplant, BALB/c donor, C3H/HeN diabetic recipient
Procedure: For the transplant, a 6 week old BALB/c mouse was used as the donor and a 6 week old C3H/HeN mouse was used as the recipient.
A diabetic model mouse was prepared by intraperitoneally injecting 220 mg/kg of streptozocin (available from Sigma-Aldrich Japan K.K.) to a C3H/HeN mouse. 6 days after the streptozocin injection, the mouse in which the glucose level exceeded 350 mg/dl was determined as being hyperglycemic.
Meanwhile, the spleen of the BALB/c mouse was taken out and after subjecting to discontinuous Ficoll density gradient centrifugation, beta cells were isolated by normal collagenase digestion.
About 500 of the isolated beta cells were transplanted under the capusula of the left kidney of the above diabetic model mouse. […] The glycemia was measured and when the level thereof exceeded 200 mg/dl for 2 consecutive days, transplant rejection was considered to have occurred.

IL-2 gene = assay: transcription of IL-2 gene in Jurkat cells stimulated with PMA and ionomycin, real-time quantitative RT-PCR; format: cell-based, human; conditions: 1 μM 11R-VEET
Procedure: Subsequently, 100 μl of RPMI containing 2 μM of phorbol 12-myristate 13-acetate (PMA) (available from Sigma-Aldrich Co.) and 40 μM of ionomycin (available from Sigma-Aldrich Co.) was added and culture was continued for 12 more hours. Then, the cells were recovered and using the obtained cells, the transcription amount of IL-2 gene was measured by the following real-time quantitative RT-PCR. In real-time quantitative RT-PCR, GAPDH, which is known as a housekeeping gene, was used as the inner standard substance.
RNeasy Mini Kit (available from QIAGEN K.K.) was used according to protocol and total RNA was extracted from the cells. Using the obtained total RNA, reverse transcription reaction was conducted by incubation at 22° C. for 10 minutes and then at 42° C. for 20 minutes.
Thereafter, using Light Cycler-Fast Start DNA Master SYBR Green I Kit (available from Roche Molecular Biochemicals), 20 μl of a mixed reaction solution ( 1/10 of the amount of the transcription product, 4 mM of MgCl2, 4 kinds of primers: 0.5 μM respectively, 2 μl of 10×Light Cycler-Fast Start DNA Master SYBR Green I) was prepared for amplification reaction. As the primer for human IL-2, the primer included in Competitive Quantitative RT-PCR Kit (available from Funakoshi Co., Ltd.) was used. […]

βTC6 cells [3] = assay: insulin secretion of βTC6 cells (Mouse Insulin ELISA); format: cell-based; conditions: 11R-VEET 10, 100, 1000 or 10000 nM, 96 hours
Procedure: The medium was replaced with a fresh medium containing […] every 24 hours. After 96 hours, the medium was replaced with a fresh medium. Culture was conducted for 1 more hour and the culture supernatant was collected. For control, βTC6 cells were cultured in the same manner, except that a medium without […] was used. Subsequently, using the collected supernatant, the secreted insulin was analyzed using Mouse Insulin ELISA (TMB) Kit (available from Shibayagi Co., Ltd.) according to protocol.

lymphocytes [4] = assay: mixed lymphocyte test using spleen cells from treated mouse, [3H]TdR incorporation; format: in vivo, C3H/HeN mouse; conditions: printed: 1 μM of 11R-VEET; method b87: 10 mg/kg intraperitoneal
Procedure: Thereafter, the cells were placed on filter paper having a diameter of 1 cm and the radioactivity of [^3H]TdR incorporated into the cells was measured by a beta counter.

[5] = tested on: IL-2 gene (transcription); assay: half-life in T cells based on inhibitory activity to IL-2 transcription (time course in Jurkat cells); conditions: human
Procedure: Subsequently, 100 μl of RPMI containing 2 μM of PMA and 40 μM of ionomycin was added and culture was conducted further for 12 hours, 17 hours, 23 hours, 35 hours or 59 hours.
Subsequently, the relative RNA amount to GAPDH was measured by conducting RT-PCR and real-time quantitative RT-PCR and analysis in the same manner as in Example 3, except that the respective obtained cells were used as samples. The time shown in FIG. 2 refers to the total culture time.
Using 1 ml of 10% fetal bovine serum-containing RPMI containing 1 μM of FK 506, 1×10^5 Jurkat cells were cultured for 1 hour in a carbon dioxide culture device set to 37° C. and carbon dioxide concentration of 5%. Subsequently, 100 μl of RPMI containing 2 μM of PMA and 40 μM of ionomycin was added and culture was conducted further for 12 hours, 17 hours, 23 hours, 35 hours or 59 hours. Thereafter, RT-PCR and real-time quantitative RT-PCR were conducted in the same manner as in Example 3, except that the obtained culture cells were used.

Molecule	effect on proliferation of lymphocytes (lymphocytes [1])	inhibitory effect to proliferation of βTC6 cells (βTC6 cells [2])	survival rate of transplanted beta cells compared to control (transplanted beta cells)	effect on transcription level of IL-2 gene (IL-2 gene)	insulin secretion amount of βTC6 cells (βTC6 cells [3])	effect on proliferation of lymphocytes (cells from treated mouse) (lymphocytes [4])	half-life at 1 μM [5]
11R-VEET: peptide comprising 11 consecutive arginine residues and VEET (MAGPPHIVEETGPHVI) with 3 glycine residues; SEQ ID NO. 4; negative control (RRRRRRRRRRRGGGMAGPPHIVEETGPHVI)	not affected	did not exhibit an inhibitory effect	did not affect	did not affect	unaffected	not affected	–
CC[C@H](C)[C@H](NC(=O)[C@@H](NC(=O)[C@@H]1CCCN1C(=O)[C@H](Cc1c[nH]cn1)NC(=O)[C@@H]1CCCN1C(=O)CNC(=O)[C@H](C)NC(=O)[C@H](CCSC)NC(=O)CNC(=O)CNC(=O)CNC(=O)[C@H](CCCNC(=N)N)NC(=O)[C@H](CCCNC(=N)N)NC(=O)[C@H](CCCNC(=N)N)NC(=O)[C@H](CCCNC(=N)N)NC(=O)[C@H](CCCNC(=N)N)NC(=O)[C@H](CCCNC(=N)N)NC(=O)[C@H](CCCNC(=N)N)NC(=O)[C@H](CCCNC(=N)N)NC(=O)[C@H](CCCNC(=N)N)NC(=O)[C@H](CCCNC(=N)N)NC(=O)[C@@H](N)CCCNC(=N)N)C(C)C)C(=O)N[C@H](C(=O)N[C@H](C(=O)N[C@H](C(=O)NCC(=O)N1CCC[C@H]1C(=O)N[C@@H](Cc1c[nH]cn1)C(=O)N[C@@H](CCC(=O)O)C(=O)N[C@@H](CCC(=O)O)C(=O)O)[C@@H](C)O)[C@@H](C)CC)C(C)C [11R-VIVIT] (H-RRRRRRRRRRRGGGMAGPHPVIVITGPHEE-OH; N-terminus and C-terminus assumed)	–	–	–	–	–	–	~30 h

— patent publication US7659249B2, “Membrane-permeable NFAT inhibitory peptide” (Japan Science and Technology Agency, priority 2002, dated 2010)
